Measured values from US8507010B2, “Compositions comprising quinazoline derivatives” (Shanghai Allist Pharmaceuticals, Inc., priority 2008, dated 2013).
Values belong to the compound of their own block, whether it stands above or below them.

Columns and labels:
in vivo = conditions: male, SD, rat
Protocol: Intragastric administration (ig): 16 healthy SD rats (Shanghai Super-B&K Laboratory Animal Corp. Ltd., grade SPF), male, weighted 200-250 g, randomly divided into four groups, were each administered intragastrically with a drug: the compound prepared according to Example 1 (21.68 mg/kg), crystalline form A, crystalline form B, or crystalline form C (30 mg/kg) of p-toluenesulfonate of said compound. The blood samples were collected at 0.5 h, 1.0 h, 1.5 h, 2.0 h, 3.0 h, 5.0 h, 7.0 h, 9.0 h, 12 h, and 24 h after administration, which were then isolated to prepare the plasma. The concentrations of the drugs in the plasma were determined by means of liquid phase chromatography/tandem mass spectrometer (Agilent 1200LC/6410B), and the concentration-time curve was obtained.

[1] = Study of stability at high temperature (60° C.); type: physicochemical; conditions: p-toluenesulfonate; for Purity (%): 60° C.; for thermal stability (in words): stored at 60° C. for 1 month
Study of light stability = type: physicochemical; conditions: p-toluenesulfonate; for light stability (in words): illumination 45001×±5001× for 1 month; for Purity (%): illumination 45001×±5001×
Source text: The purity of the crystalline form A was detected at day 0, day 10 and day 30, thereby deducing light stability of crystalline form A. The light stability of each of crystalline forms B and C is obtained by the same approach.

[2] = Study of hygroscopicity (92.5% humidity); type: physicochemical; conditions: p-toluenesulfonate; for stability in highly humid surroundings (in words): 92.5% humidity for 1 month; for Purity (%): 92.5% humidity
[3] = Test on the drug absorption in SD rat, intravenous injection (iv); type: in vivo; conditions: male, 5 mg/kg, plasma
Protocol: Intravenous injection (iv): 4 healthy SD rats, male, weighted 200-250 g, were intravenously administered with p-toluenesulfonate of the compound of Example 1 (5 mg/kg). The blood samples were collected at 5 min, 15 min, 0.5 h, 1.5 h, 2.0 h, 3.0 h, 4.0 h, 5.0 h and 7.0 h after administration, which were then isolated to prepare the plasma. The concentrations of the drugs in the plasma were determined by means of liquid phase chromatography/tandem mass spectrometer and the concentration-time curve was obtained.

[4] = test system: human epidermoid squamous cancer cell A431; assay: Tumor-inhibitory effect on human epidermoid squamous cancer cell A431 grafted to a BALB/cA nude mouse; type: in vivo; conditions: for inhibitory effect on the tumor (in words): A431 grafted to BALB/cA nude mouse, high expression of EGFR (erbB-1), p-toluenesulfonate; for Tumor-inhibitory rate % / Weight of animals (g) (tumor-off) / Weight of tumor (g) x ± SD: 13 successive days, 23 days after grafting
Protocol: A well-developed solid tumor A431 was selected and incised into several uniform pieces with the size of 2-3 mm under sterile conditions, with one piece being grafted subcutaneously to the right armpit of each of the BALB/cA nude mice using a trocar. 7 days after the grafting, the mice were grouped randomly and were intragastrically administrated through mouth for 13 successive days. The long axis (a) and the short axis (b) of the tumors were measured with a vernier caliper every 4 days. According to the formula V=ab^2/2, the volume of the tumor (mm^3) could be calculated. The tested animals were neck-off killed 23 days after the grafting, and anatomized to obtain the tumors. The tumors were weighed, and the tumor inhibition rate was calculated.
(§1) Human epidermoid squamous carcinoma A431 grafted to BALB/cA nude mouse is an animal model having high expression of EGFR (erbB-1), and human ovarian cancer SKOV-3 grafted to BALB/cA nude mouse is an animal model having high expression of erbB-2.

[5] = test system: human ovarian cancer SKOV-3; assay: Tumor-inhibitory effect on human ovarian cancer SKOV-3 grafted to a BALB/cA nude mouse; type: in vivo; conditions: for inhibitory effect on the tumor (in words): SKOV-3 grafted to BALB/cA nude mouse, high expression of erbB-2, p-toluenesulfonate; for RTV: RTV=Vt/V0; for Volume of tumor (mm^3) V0: prior to the administration
Protocol: A SKOV-3 tumor tissue in vigorous growth period was selected and incised into uniform pieces with the size of about 1.5 mm^3, which was grafted subcutaneously to the right armpit of a BALB/cA nude mouse (Shanghai Institute of Materia Medica, Chinese Academy of Sciences, grade SPF) with a trocar under sterile conditions. The diameters of the grafted tumors on the nude mouse were measured with a vernier caliper. The animals were grouped randomly when the tumors grew to a size of 80 to 100 mm^3. The tested animal groups were intragastrically administered through mouth as mentioned above once a day for 3 consecutive weeks. The positive control drug MMC (Mitomycin) was intravenously administered once on the first day with a dose of 5 mg/kg (0.9% sterile sodium chloride solution). The negative control group was administered with 0.5% CMC-Na (Carboxymethyl Cellulose-Sodium) with a dose of 0.2 mL/per mouse. The long axis (a) and the short axis (b) of the tumors were measured twice every week and the nude mice were weighed at the same time. According to the formula V=ab^2/2, the volume (mm^3) of the tumor could be calculated. Relative tumor volume (RTV) was calculated from the measurement result (according to the formula: RTV=Vt/V0, wherein V0 is the tumor volume measured upon the grouping time of administration, and Vt is the tumor volume measured each time). The relative tumor proliferation rate T/C(%) was chosen as the index of evaluation of anti-tumor activity, by the formula: T/C(%)=(TRTV/CRTV)×100 TRTV: RTV of the treated group; CRTV: RTV of the negative control group
as §1

[6] = listed as p-toluenesulfonate of N-{-4-[3-chloro-4-(3-fluoro-benzyloxy)phenylamino]quinazol
[7] = 5 mg/kg iv once on the first day
[8] = 50 mg/kg ig once a day for 3 weeks
[9] = 100 mg/kg ig once a day for 3 weeks
[10] = 200 mg/kg ig once a day for 3 weeks

- absolute bioavailability (in vivo): 8.76%
- AUC(0-t) (in vivo; po, 30 mg/kg): 978 ng·h/mL
- Cmax (in vivo; po, 30 mg/kg): 253 ng/mL
- T1/2 (in vivo; po, 30 mg/kg): 1.23 h
- Tmax (in vivo; po, 30 mg/kg): 1.25 h
- Purity (%) ([1]; day 0): 99.26%
- Purity (%) ([1]; day 10): 99.21%
- Purity (%) ([1]; day 30): 99.11%
- thermal stability (in words) [1]: excellent thermal stability
- light stability (in words) (Study of light stability): excellent light stability
- Purity (%) (Study of light stability; day 0): 99.26%
- Purity (%) (Study of light stability; day 10): 99.26%
- Purity (%) (Study of light stability; day 30): 99.24%
- stability in highly humid surroundings (in words) [2]: very stable
- Purity (%) ([2]; day 0): 99.26%
- Purity (%) ([2]; day 10): 99.25%
- Purity (%) ([2]; day 30): 99.24%
SMILES: C=CC(=O)Nc1ccc2ncnc(Nc3ccc(OCc4cccc(F)c4)c(Cl)c3)c2c1.Cc1ccc(S(=O)(=O)O)cc1 [Crystalline form B, N-{4-[3-chloro-4-(3-fluoro-benzyloxy)phenylamino]quinazolin-6-yl}-acrylamide p-toluenesulfonate]

- bioavailability (in vivo; absolute bioavailability): 8.75%
- AUC(0-t) (in vivo; po, 30 mg/kg): 977 ng·h/mL
- Cmax (in vivo; po, 30 mg/kg): 187 ng/mL
- T1/2 (in vivo; po, 30 mg/kg): 1.49 h
- Tmax (in vivo; po, 30 mg/kg): 2.83 h
- Weight of animals (g) (tumor-off) ([4]; 25 mg/kg ig): 21.58 ± 2.18 g
- Weight of animals (g) (tumor-off) ([4]; 50 mg/kg ig): 22.87 ± 3.96 g
- Weight of animals (g) (tumor-off) ([4]; 100 mg/kg ig): 22.13 ± 1.83 g
- Purity (%) ([1]; day 0): 98.64%
- Purity (%) ([1]; day 10): 98.64%
- Purity (%) ([1]; day 30): 98.64%
- thermal stability (in words) [1]: excellent thermal stability
- light stability (in words) (Study of light stability): good light stability
- Purity (%) (Study of light stability; day 0): 98.64%
- Purity (%) (Study of light stability; day 10): 98.16%
- Purity (%) (Study of light stability; day 30): 97.24%
- stability in highly humid surroundings (in words) [2]: very stable
- Purity (%) ([2]; day 0): 98.64%
- Purity (%) ([2]; day 10): 98.62%
- Purity (%) ([2]; day 30): 98.62%
SMILES: C=CC(=O)Nc1ccc2ncnc(Nc3ccc(OCc4cccc(F)c4)c(Cl)c3)c2c1.Cc1ccc(S(=O)(=O)O)cc1 [Crystalline form A, N-{4-[3-chloro-4-(3-fluoro-benzyloxy)phenylamino]quinazolin-6-yl}-acrylamide p-toluenesulfonate]
- Tumor-inhibitory rate % ([4]; 25 mg/kg ig): 29.99%
- Weight of tumor (g) x ± SD ([4]; 25 mg/kg ig): 0.79 ± 0.20 g
- Tumor-inhibitory rate % ([4]; 50 mg/kg ig): 38.67%
- Weight of tumor (g) x ± SD ([4]; 50 mg/kg ig): 0.69 ± 0.17 g
- Tumor-inhibitory rate % ([4]; 100 mg/kg ig): 43.63%
- Weight of tumor (g) x ± SD ([4]; 100 mg/kg ig): 0.64 ± 0.23 g
- T/C (%) [5, 8]: 53.0%
- RTV [5, 8]: 5.1 ± 1.7
- Volume of tumor (mm^3) V21 ([5]; 50 mg/kg ig once a day, after administration for consecutive 3 weeks): 421 ± 89 mm^3
- Volume of tumor (mm^3) V0 ([5]; 50 mg/kg ig): 79 ± 28 mm^3
- T/C (%) [5, 9]: 45.0%
- RTV [5, 9]: 4.3 ± 1.3
- Volume of tumor (mm^3) V21 ([5]; 100 mg/kg ig once a day, after administration for consecutive 3 weeks): 345 ± 88 mm^3
- Volume of tumor (mm^3) V0 ([5]; 100 mg/kg ig): 87 ± 41 mm^3
- T/C (%) [5, 10]: 36.9%
- RTV [5, 10]: 3.5 ± 0.8
- Volume of tumor (mm^3) V21 ([5]; 200 mg/kg ig once a day, after administration for consecutive 3 weeks): 303 ± 72 mm^3
- Volume of tumor (mm^3) V0 ([5]; 200 mg/kg ig): 86 ± 13 mm^3
- inhibitory effect on the tumor (in words) [5]: significant inhibitory effect on the tumor

Further lines, the compound ahead of its results:

SMILES: C=CC(=O)Nc1ccc2ncnc(Nc3ccc(OCc4cccc(F)c4)c(Cl)c3)c2c1.Cc1ccc(S(=O)(=O)O)cc1 [Crystalline form C, N-{4-[3-chloro-4-(3-fluoro-benzyloxy)phenylamino]quinazolin-6-yl}-acrylamide p-toluenesulfonate]
- absolute bioavailability (in vivo): 5.17%
- Tmax (in vivo; po, 30 mg/kg): 2.25 h
- AUC(0-t) (in vivo; po, 30 mg/kg, AUC0-t): 577 ng·h/mL
- Cmax (in vivo; po, 30 mg/kg, Cmax): 161 ng/mL
- half-life (in vivo; po, 30 mg/kg, T1/2): 1.27 h
- Purity (%) ([1]; day 0): 99.03%
- Purity (%) ([1]; day 10): 97.08%
- Purity (%) ([1]; day 30): 97.55%
- thermal stability (in words) [1]: good thermal stability
- light stability (in words) (Study of light stability): good light stability
- Purity (%) (Study of light stability; day 0): 99.03%
- Purity (%) (Study of light stability; day 10): 98.54%
- Purity (%) (Study of light stability; day 30): 98.42%
- stability in highly humid surroundings (in words) [2]: quite stable
- Purity (%) ([2]; day 0): 99.03%
- Purity (%) ([2]; day 10): 98.27%
- Purity (%) ([2]; day 30): 98.08%

SMILES: C=CC(=O)Nc1ccc2ncnc(Nc3ccc(OCc4cccc(F)c4)c(Cl)c3)c2c1.Cc1ccc(S(=O)(=O)O)cc1 [p-toluene sulfonate, N-{4-[3-chloro-4-(3-fluoro-benzyloxy)phenylamino]quinazolin-6-yl}-acrylamide p-toluenesulfonate]
- AUC(0-t) [3]: 1860 ng·h/mL
- Cmax [3]: 1740 ng/mL
- Tmax [3]: 4.98 min
- half-life [3]: 1.55 h
- inhibitory effect on the tumor (in words) ([4]; listed as p-toluenesulfonate of N-{-4-[3-chloro-4-(3-fluoro-benzyloxy)phenylamino]-quinazo): significant inhibitory effect on the tumor
- inhibitory effect on the tumor (in words) [4, 6]: remarkable inhibitory effect on tumor growth
- inhibitory effect on the tumor (in words) [5, 6]: remarkable inhibitory effect on tumor growth

SMILES: CO[C@@]12[C@H](COC(N)=O)C3=C(C(=O)C(C)=C(N)C3=O)N1C[C@@H]1N[C@@H]12 [MMC, Mitomycin, reference compound]
- RTV [5, 7]: 3.1 ± 0.5
- T/C (%) ([5]; 5 mg/kg iv once on the first day, T/C=(TRTV/CRTV)×100): 32.0%
- Volume of tumor (mm^3) V21 ([5]; 5 mg/kg iv once on the first day, after 3 weeks): 258 ± 77 mm^3
- Volume of tumor (mm^3) V0 [5, 7]: 83 ± 13 mm^3
